Where no end group is shown, it is not given here. FTC = fluorescein thiocarbamyl
B1: N-fluoresceyl thiocarbamyl-[Glu1] neurotensin (peptide)
peptide: {FTC}-ELYENKPRRPYIL
notes: Synthetic 13-residue neurotensin analogue with Glu in place of pGlu at position 1, carrying one fluorescein per peptide; Molecular weight 2080; also called N-FTC-[Glu1]NT; FTC-[Glu1]NT

Legend:
Stability / shelf life = assay type: physicochemical; settings: protected from light and maintained at 4°C
Solubility = assay type: physicochemical; settings: distilled water or aqueous buffer
[1] = Toxicity (statement, no method given)
[2] = target: T1, neurotensin receptor on purified brain membranes from adult male mice (mouse, UniProt O88319 1-424); assay: competition with 0.1 nM 125I-Tyr3-neurotensin on mouse brain membranes, filtration, 20 min at 22 C
T1 construct: whole, on cells; This is the native receptor in a brain membrane preparation, not on intact cells; also called mouse brain membranes
T1 sequence (O88319 whole entry): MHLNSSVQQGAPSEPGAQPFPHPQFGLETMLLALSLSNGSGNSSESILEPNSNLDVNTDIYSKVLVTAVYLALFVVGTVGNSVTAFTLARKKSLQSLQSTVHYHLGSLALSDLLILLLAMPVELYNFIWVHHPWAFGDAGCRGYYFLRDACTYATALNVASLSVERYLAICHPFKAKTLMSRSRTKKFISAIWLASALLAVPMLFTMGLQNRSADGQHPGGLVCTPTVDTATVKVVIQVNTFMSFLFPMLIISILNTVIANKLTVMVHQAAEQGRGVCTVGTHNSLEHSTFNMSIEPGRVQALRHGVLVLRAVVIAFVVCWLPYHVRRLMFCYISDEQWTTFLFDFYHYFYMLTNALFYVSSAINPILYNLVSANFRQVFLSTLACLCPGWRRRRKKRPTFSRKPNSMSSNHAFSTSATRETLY

| Molecule | stability (Stability / shelf life) | solubility (Solubility) | toxicity [1] [% non-toxic] | IC50 [2] [pM] |
| --- | --- | --- | --- | --- |
| CC[C@H](C)[C@H](NC(=O)[C@H](Cc1ccc(O)cc1)NC(=O)[C@@H]1CCCN1C(=O)[C@H](CCCNC(=N)N)NC(=O)[C@H](CCCNC(=N)N)NC(=O)[C@@H]1CCCN1C(=O)[C@H](CCCCN)NC(=O)[C@H](CC(N)=O)NC(=O)[C@H](CCC(=O)O)NC(=O)[C@H](Cc1ccc(O)cc1)NC(=O)[C@H](CC(C)C)NC(=O)[C@H](CCC(=O)O)NC(=S)Nc1ccc2c(c1)C(=O)OC21c2ccc(O)cc2Oc2cc(O)ccc21)C(=O)N[C@@H](CC(C)C)C(=O)O [N-FTC-[Glu^1]NT, N-fluoresceyl thiocarbamyl-[Glu^1] neurotensin] | stable | freely soluble | 100 | – |
| B1 | – | – | – | 550 |

From patent EP0606804B1, “Marker for neurotensin receptor” (MARTINEX R & D INC., priority 1992, dated 2001)
